From ChEMBL document CHEMBL1155486, “From 6-aminoquinolone antibacterials to 6-amino-7-thiopyranopyridinylquinolone ethyl esters as inhibitors of Staphylococcus aureus multidrug efflux pumps” (2010) come the findings set out here.

Molecules are shown by their SMILES. Values after ≈ are worked out from the molar mass of the structure shown.

Assay type in all cases: functional
One assay relates to Escherichia coli. Kind of assay: Antibacterial activity against Escherichia coli ATCC 25922 by microdilution technique. (In general: Broth dilution looks for growth in wells or tubes with falling amounts of substance.)
The test system of assay [1] is Staphylococcus aureus. Kind of assay: Antibacterial activity against methicillin and ciprofloxacin-resistant Staphylococcus aureus 25A by microdilution technique.
Assay [2] relates to Staphylococcus aureus. Kind of assay: Antibacterial activity against Staphylococcus aureus SA-1199B norA++ and A116E GrlA mutation by microdilution technique.
In assay [3] the test system is Staphylococcus aureus. The assay can be described thus: Antibacterial activity against Staphylococcus aureus ATCC 25923 by microdilution technique.
The test system of assay [4] is Staphylococcus aureus. The assay can be described thus: Antibacterial activity against Staphylococcus aureus SA-K1904 bearing norA++ efficient mutation by microdilution technique.
Assay [5] has as its system Staphylococcus aureus. The assay can be described thus: Antibacterial activity against wild-type norA expressing Staphylococcus aureus SA-1199 by microdilution technique.
For assay [6], the system named is Staphylococcus aureus. Kind of assay: Antibacterial activity against Staphylococcus aureus SA-K1902 bearing norA- deficient mutation by microdilution technique.

`O=C(O)c1cn(C2CC2)c2cc(N3CCC4=C(C3)/C(=N/O)CCS4)c(F)cc2c1=O`: the MIC in the assay with Escherichia coli stood at 1 µg/mL (≈ 2.33 µM); against Staphylococcus aureus [1], 2 µg/mL (≈ 4.66 µM); against Staphylococcus aureus [2], 2.5 µg/mL (≈ 5.82 µM); in the assay on Staphylococcus aureus [3], 2 µg/mL (≈ 4.66 µM); in the assay on Staphylococcus aureus [4] it was 0.63 µg/mL (≈ 1.47 µM); in the assay on Staphylococcus aureus [5], 0.63 µg/mL (≈ 1.47 µM). In addition, the MIC in the assay with Staphylococcus aureus [6] is 0.63 µg/mL (≈ 1.47 µM).
In the case of `Cc1c(N2CCC3=C(C2)C(O)CCS3)c(N)cc2c(=O)c(C(=O)O)cn(C3CC3)c12` (stereo unspecified), the MIC in the assay with Escherichia coli is greater than 128 µg/mL; in the assay with Staphylococcus aureus [1] it was greater than 128 µg/mL; against Staphylococcus aureus [2], greater than 100 µg/mL; against Staphylococcus aureus [3] it was greater than 128 µg/mL; against Staphylococcus aureus [4], greater than 100 µg/mL; in the assay with Staphylococcus aureus [5] it was greater than 100 µg/mL. The compound also registered a minimum inhibitory concentration (MIC) in the assay with Staphylococcus aureus [6] greater than 100 µg/mL.
`CO/N=C1\CCSC2=C1CN(c1cc3c(cc1N)c(=O)c(C(=O)O)cn3C1CC1)CC2`: the MIC amounted to 16 µg/mL (≈ 36.3 µM) with Escherichia coli; 8 µg/mL (≈ 18.2 µM) against Staphylococcus aureus [1]; 12.5 µg/mL (≈ 28.4 µM) with Staphylococcus aureus [2]; 2 µg/mL (≈ 4.54 µM) in the assay with Staphylococcus aureus [3]; 3.13 µg/mL (≈ 7.11 µM) with Staphylococcus aureus [4]; 3.13 µg/mL (≈ 7.11 µM) in the assay with Staphylococcus aureus [5]. The MIC against Staphylococcus aureus [6] was determined as 1.56 µg/mL (≈ 3.54 µM).
Regarding `Nc1cc2c(=O)c(C(=O)O)cn(C3CC3)c2cc1N1CCC2=C(C1)/C(=N/O)CCS2`, the MIC against Escherichia coli was determined as 2 µg/mL (≈ 4.69 µM); in the assay on Staphylococcus aureus [1], 16 µg/mL (≈ 37.5 µM); in the assay with Staphylococcus aureus [2], 12.5 µg/mL (≈ 29.3 µM); in the assay with Staphylococcus aureus [3], 2 µg/mL (≈ 4.69 µM); against Staphylococcus aureus [4] it was 6.25 µg/mL (≈ 14.7 µM); in the assay on Staphylococcus aureus [5], 1.56 µg/mL (≈ 3.66 µM). This compound also registered an MIC in the assay on Staphylococcus aureus [6] of 1.56 µg/mL (≈ 3.66 µM).
Take `O=C1CCSC2=C1CN(c1cc3c(cc1F)c(=O)c(C(=O)O)cn3C1CC1)CC2`: the MIC against Escherichia coli is 8 µg/mL (≈ 19.3 µM); against Staphylococcus aureus [1], greater than 128 µg/mL; against Staphylococcus aureus [2], 3.13 µg/mL (≈ 7.55 µM); against Staphylococcus aureus [3], 0.08 µg/mL (≈ 0.193 µM); against Staphylococcus aureus [4], 0.63 µg/mL (≈ 1.52 µM); in the assay with Staphylococcus aureus [5], 1.56 µg/mL (≈ 3.76 µM). The same compound yielded an MIC with Staphylococcus aureus [6] of 0.31 µg/mL (≈ 0.748 µM).
As for `CC1CSC2=C(CN(c3cc4c(cc3N)c(=O)c(C(=O)O)cn4C3CC3)CC2)/C1=N/O` (stereo unspecified), the MIC against Escherichia coli came to 32 µg/mL (≈ 72.6 µM); with Staphylococcus aureus [1], 32 µg/mL (≈ 72.6 µM); in the assay on Staphylococcus aureus [2], 6.25 µg/mL (≈ 14.2 µM); with Staphylococcus aureus [3], 6.25 µg/mL (≈ 14.2 µM); with Staphylococcus aureus [4], 3.13 µg/mL (≈ 7.11 µM); in the assay on Staphylococcus aureus [5] it was 1.56 µg/mL (≈ 3.54 µM). In the assay on Staphylococcus aureus [6], this compound yielded an MIC of 1.56 µg/mL (≈ 3.54 µM).
Take `CO/N=C1/C2=C(CCN(c3cc4c(cc3F)c(=O)c(C(=O)O)cn4C3CC3)C2)SCC1C` (stereo unspecified): the MIC worked out at 64 µg/mL (≈ 140 µM) with Escherichia coli; 8 µg/mL (≈ 17.5 µM) in the assay with Staphylococcus aureus [1]; 5 µg/mL (≈ 10.9 µM) in the assay with Staphylococcus aureus [2]; 2 µg/mL (≈ 4.37 µM) with Staphylococcus aureus [3]; 2.5 µg/mL (≈ 5.46 µM) against Staphylococcus aureus [4]; 2.5 µg/mL (≈ 5.46 µM) in the assay with Staphylococcus aureus [5]. This compound also yielded an MIC with Staphylococcus aureus [6] of 2.5 µg/mL (≈ 5.46 µM).
Take `CC1CSC2=C(CN(c3cc4c(cc3N)c(=O)c(C(=O)O)cn4C3CC3)CC2)C1=O` (stereo unspecified): the MIC in the assay with Escherichia coli was determined as 64 µg/mL (≈ 150 µM); in the assay with Staphylococcus aureus [1], 16 µg/mL (≈ 37.6 µM); with Staphylococcus aureus [2], 12.5 µg/mL (≈ 29.4 µM); against Staphylococcus aureus [3], 6.25 µg/mL (≈ 14.7 µM); with Staphylococcus aureus [4], 6.25 µg/mL (≈ 14.7 µM); against Staphylococcus aureus [5] it was 3.13 µg/mL (≈ 7.36 µM). This compound had an MIC in the assay on Staphylococcus aureus [6] of 1.56 µg/mL (≈ 3.67 µM).
Turning to `Nc1cc2c(=O)c(C(=O)O)cn(C3CC3)c2cc1N1CCC2=C(C1)C(=O)CCS2`, the MIC against Escherichia coli was 128 µg/mL (≈ 311 µM); against Staphylococcus aureus [1], greater than 128 µg/mL; against Staphylococcus aureus [2], 25 µg/mL (≈ 60.8 µM); against Staphylococcus aureus [3], 6.25 µg/mL (≈ 15.2 µM); with Staphylococcus aureus [4], 6.25 µg/mL (≈ 15.2 µM); with Staphylococcus aureus [5] it was 1.56 µg/mL (≈ 3.79 µM). Also, the MIC with Staphylococcus aureus [6] amounted to 3.13 µg/mL (≈ 7.61 µM).
As for `CO/N=C1/C2=C(CCN(c3cc4c(cc3N)c(=O)c(C(=O)O)cn4C3CC3)C2)SCC1C` (stereo unspecified), the MIC with Escherichia coli came to 128 µg/mL (≈ 282 µM); with Staphylococcus aureus [1], 4 µg/mL (≈ 8.8 µM); against Staphylococcus aureus [2], 6.25 µg/mL (≈ 13.7 µM); in the assay with Staphylococcus aureus [3], 4 µg/mL (≈ 8.8 µM); in the assay with Staphylococcus aureus [4] it was 3.13 µg/mL (≈ 6.89 µM); against Staphylococcus aureus [5] it was 6.25 µg/mL (≈ 13.7 µM). Moreover, the MIC in the assay with Staphylococcus aureus [6] came to 3.13 µg/mL (≈ 6.89 µM).
For the compound `Cc1c(N2CCC3=C(C2)/C(=N/O)CCS3)c(N)cc2c(=O)c(C(=O)O)cn(C3CC3)c12`, the MIC in the assay on Escherichia coli came to 0.5 µg/mL (≈ 1.14 µM); with Staphylococcus aureus [2], 2.5 µg/mL (≈ 5.68 µM); in the assay on Staphylococcus aureus [3], 0.31 µg/mL (≈ 0.704 µM); in the assay on Staphylococcus aureus [4] it was 0.63 µg/mL (≈ 1.43 µM); against Staphylococcus aureus [5], 0.63 µg/mL (≈ 1.43 µM); in the assay with Staphylococcus aureus [6] it was 0.63 µg/mL (≈ 1.43 µM).

In general, MIC refers to the least concentration at which growth counts as inhibited. A higher MIC goes with a need for much substance.
